According to patent US9260455B2, “Alkyl-substituted hexahydropyrano[3,4-d][1,3]thiazin-2-amine compounds” (Pfizer Inc., priority 2012, dated 2016):
Like-named read-outs stand apart in the source and are kept apart here.

Tests used:
BACE2 = BACE2 (Homo sapiens (Human), UniProt Q9Y5Z0); assay: BACE2 Cell-free Assay; assay type: biochemical; details: fluorescence polarization; 2.5 nM BACE2, 150 nM peptide substrate, pH 4.5, 3 hours at 37° C.; geometric mean
Protocol: BACE2 Assay: This assay measures the inhibition of the BACE2 enzyme as it cleaves a non-native peptide. […] The substrate is Biotin-[…](Oregon green)-KK-OH. The BACE2 enzyme is available from Enzo Life Sciences (Cat #BML-SE550). Compounds are incubated in a 1⁄2 log dose response curve from a top concentration of 100 μM with BACE2 enzyme and the biotinylated fluorescent peptide in 384-well black plates (Thermo Scientific #4318). […] Plates are covered and incubated for 3 hours at 37° C. The reaction is stopped with the addition of 30 μL of 1.5 μM Streptavidin (Pierce, #21125). After a 10 minute incubation at room temperature, plates are read on a PerkinElmer Envision for fluorescent polarization (Ex485 nm/Em530 nm). The activity of the beta-secretase enzyme is detected by changes in the fluorescence polarization that occur when the substrate is cleaved by the enzyme.

BACE1 = BACE1 (Homo sapiens (Human), UniProt P56817); assay: BACE1 Cell-Free Assay; assay type: biochemical; details: fluorescence polarization; 0.1 nM BACE1, 150 nM peptide substrate, pH 4.5, 3 hours at 37° C.; geometric mean
BACE1, sequence (P56817 46-457): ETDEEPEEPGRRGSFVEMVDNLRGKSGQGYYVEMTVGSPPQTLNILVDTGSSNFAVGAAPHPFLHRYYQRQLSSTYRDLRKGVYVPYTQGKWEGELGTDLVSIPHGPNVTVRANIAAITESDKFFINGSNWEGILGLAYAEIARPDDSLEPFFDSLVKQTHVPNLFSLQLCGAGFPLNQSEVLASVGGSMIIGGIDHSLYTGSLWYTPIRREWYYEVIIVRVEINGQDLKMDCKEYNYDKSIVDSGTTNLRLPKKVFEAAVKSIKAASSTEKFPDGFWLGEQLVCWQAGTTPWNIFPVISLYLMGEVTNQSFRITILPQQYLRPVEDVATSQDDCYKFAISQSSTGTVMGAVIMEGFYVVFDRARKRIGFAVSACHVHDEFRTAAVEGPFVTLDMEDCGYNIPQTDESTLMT

[1] = test system: H4 human neuroglioma cells over-expressing the wild-type human APP695; assay: sAPPβ Whole-Cell Assay (in vitro sAPPb assay); assay type: cell-based; details: read-out: sAPPβ Whole-Cell Assay IC50
Protocol: Whole Cell Assay (In Vitro sAPPb Assay):
H4 human neuroglioma cells over-expressing the wild-type human APP695 are treated for 18 hours with compound in cell growth media having a final concentration 1% DMSO. sAPPβ levels are measured using TMB-ELISA with capture APP N-terminal antibody (Affinity BioReagents, OMA1-03132), wild-type sAPPβ specific reporter p192 (Elan), and tertiary anti rabbit-HRP (GE Healthcare).

[2] = H4 cells, 18 hours with compound, sAPPβ by TMB-ELISA, geometric mean

BACE2, sequence (Q9Y5Z0 63-518): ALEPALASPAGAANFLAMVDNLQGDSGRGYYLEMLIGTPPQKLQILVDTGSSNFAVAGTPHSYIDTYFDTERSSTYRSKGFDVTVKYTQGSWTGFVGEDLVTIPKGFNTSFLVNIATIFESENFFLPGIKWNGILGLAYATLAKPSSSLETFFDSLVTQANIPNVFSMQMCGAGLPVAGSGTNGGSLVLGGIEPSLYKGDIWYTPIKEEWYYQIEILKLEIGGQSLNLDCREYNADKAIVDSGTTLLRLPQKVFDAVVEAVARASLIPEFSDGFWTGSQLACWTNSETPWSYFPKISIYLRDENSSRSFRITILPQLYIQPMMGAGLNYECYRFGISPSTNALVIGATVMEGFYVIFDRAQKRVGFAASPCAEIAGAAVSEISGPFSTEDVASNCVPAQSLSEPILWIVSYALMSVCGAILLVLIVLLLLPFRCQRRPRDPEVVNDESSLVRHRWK

**Q.** With `C[C@H]1SC(N)=N[C@@]2(c3ccc(F)cc3F)CO[C@@H](CF)C[C@@H]12` [Example 1, (4R,4aR,6R,8aS)-8a-(2,4-Difluorophenyl)-6-(fluoromethyl)-4-methyl-4,4a,5,6,8,8a-hexahydropyrano[3,4-d][1,3]thiazin-2-amine] as the compound, how does the IC50 (BACE2) read?
**A.** The IC50 was 1560 nM.

**Q.** And the IC50 (BACE1)?
**A.** Its IC50 is 805 nM.

**Q.** What about the IC50 [1, 2] of the same compound?
**A.** Its IC50 is 61.4 nM.

**Q.** Which results are given for `COC[C@H]1C[C@H]2[C@@H](C)SC(N)=N[C@@]2(c2ccc(F)cc2F)CO1` [Example 2, (4R,4aR,6R,8aS)-8a-(2,4-Difluorophenyl)-6-(methoxymethyl)-4-methyl-4,4a,5,6,8,8a-hexahydropyrano[3,4-d][1,3]thiazin-2-amine]?
**A.** IC50 (BACE2): 2310 nM; IC50 (BACE1): 737 nM; IC50 [1, 2]: 31.9 nM

**Q.** For `C[C@H]1C[C@H]2CSC(N)=N[C@@]2(c2ccc(F)cc2F)CO1` [Example 3, (4aR,6S,8aS)-8a-(2,4-Difluorophenyl)-6-methyl-4,4a,5,6,8,8a-hexahydropyrano[3,4-d][1,3]thiazin-2-amine], which IC50 (BACE2) is on record?
**A.** The IC50 was 1140 nM.

**Q.** What about the IC50 [1, 2] of the same compound?
**A.** The IC50 was 37.2 nM.

**Q.** Which IC50 (BACE2) does the source give for `NC1=N[C@@]2(c3ccc(F)cc3F)CO[C@@H](C(F)F)C[C@H]2CS1` [Example 4, (4aR,6R,8aS)-6-(Difluoromethyl)-8a-(2,4-difluorophenyl)-4,4a,5,6,8,8a-hexahydropyrano[3,4-d][1,3]thiazin-2-amine] here?
**A.** The IC50 was 2140 nM.

**Q.** How did the IC50 (BACE2) turn out when `CCOC[C@H]1C[C@H]2[C@@H](C)SC(N)=N[C@@]2(c2ccc(F)cc2F)CO1` [Example 5, (4R,4aR,6R,8aS)-8a-(2,4-Difluorophenyl)-6-(ethoxymethyl)-4-methyl-4,4a,5,6,8,8a-hexahydropyrano[3,4-d][1,3]thiazin-2-amine] was run?
**A.** The IC50 was 274 nM.

**Q.** And the IC50 (BACE1)?
**A.** Its IC50 is 613 nM.

**Q.** And the IC50 ([1]; 18 h)?
**A.** Its IC50 is 39 nM.

**Q.** What does the source list for `CC(C)OC[C@H]1C[C@H]2[C@@H](C)SC(N)=N[C@@]2(c2ccc(F)cc2F)CO1` [Example 6, (4R,4aR,6R,8aS)-8a-(2,4-Difluorophenyl)-4-methyl-6-[(propan-2-yloxy)methyl]-4,4a,5,6,8,8a-hexahydropyrano[3,4-d][1,3]thiazin-2-amine]?
**A.** IC50 (BACE2): 5080 nM; IC50 (BACE1): 718 nM; IC50 [1, 2]: 42.9 nM

**Q.** With `CC(C)C[C@H]1C[C@H]2CSC(N)=N[C@@]2(c2ccc(F)cc2F)CO1` [Example 7, (4aR,6S,8aS)-8a-(2,4-Difluorophenyl)-6-(2-methylpropyl)-4,4a,5,6,8,8a-hexahydropyrano[3,4-d][1,3]thiazin-2-amine] as the compound, how does the IC50 [1, 2] read?
**A.** Its IC50 is 20.6 nM.

**Q.** How did the IC50 (BACE2) turn out when `COC[C@H]1C[C@H]2CSC(N)=N[C@@]2(c2ccc(F)cc2F)CO1` [Example 8, (4aR,6R,8aS)-8a-(2,4-Difluorophenyl)-6-(methoxymethyl)-4,4a,5,6,8,8a-hexahydropyrano[3,4-d][1,3]thiazin-2-amine] was run?
**A.** The IC50 was 1630 nM.

**Q.** And the IC50 [1, 2]?
**A.** Its IC50 is 30 nM.
